Measured values published in ChEMBL document CHEMBL1921739, “Diabetic nephropathy-related active cyclic peptides from the roots of Brachystemma calycinum” (Bioorg Med Chem Lett, 2011).
Calls of active or inactive are those of the source. The rule behind the calls is not given here. Peptide text beside a SMILES is read from it.

Assays:
[1] = Antidiabetic nephropathy activity in rat CRL-2573 cells assessed as inhibition of high glucose-induced collagen 4production at 1 uM preincubated for 1 hr before glucose challenge measured after 24 hrs by ELISA; type: functional, cell-based
[2] = Antidiabetic nephropathy activity in rat CRL-2573 cells assessed as inhibition of high glucose-induced IL-6 production at 10 uM preincubated for 1 hr before glucose challenge measured after 24 hrs by ELISA; type: functional, cell-based
[3] = Antidiabetic nephropathy activity in rat CRL-2573 cells assessed as inhibition of high glucose-induced MCP-1 production at 10 uM preincubated for 1 hr before glucose challenge measured after 24 hrs by ELISA; type: functional, cell-based
[4] = Cytotoxicity against rat CRL-2573 cells assessed as cell viability at 10 uM after 24 hrs by trypan blue exclusion assay; type: cell-based; conditions: crl-2573, 24 h
[5] = Antidiabetic nephropathy activity in rat CRL-2573 cells assessed as inhibition of high glucose-induced ROS production at 1 to 10 uM by flow cytometry; type: functional, cell-based

With `CC[C@H](C)[C@@H]1NC(=O)[C@@H]2CCCN2C(=O)[C@@H]2CCCN2C(=O)[C@H](Cc2ccc(O)cc2)NC(=O)[C@H](CO)NC(=O)[C@H](C)NC(=O)[C@H](Cc2ccccc2)NC(=O)[C@H](CO)NC1=O` [DUANBANHUAIN A] (cyclo(ASYPPISF)) the Activity [1] was “Active”, the Activity [2] was “Active” and the Activity [3] was “Active”. For the same compound, the Activity [4] was “Non-toxic” and the Activity [5] was “Active”.
In the case of `CC(C)C[C@@H]1NC(=O)[C@H](CC(=O)O)NC(=O)[C@H](Cc2c[nH]c3ccccc23)NC(=O)[C@H](C)NC(=O)[C@@H]2CCCN2C(=O)CNC(=O)[C@H](Cc2ccccc2)NC(=O)[C@@H]2CCCN2C1=O` (cyclo(AWDLPFGP)), the Activity [2] is reported as “Active”, the Activity [3] is reported as “Active” and the Activity [5] is reported as “Active”.
